Some test systems named below: DU-145 prostate; HCC-2998 colon; M14 melanoma; NCI-H226 lung; OVCAR-8 ovarian; SNB-19 CNS; SW-620 colon; TK-10 renal; UO-31 renal; MALME-3M melanoma.
Holding throughout (assay): NCI anticancer screen, dose series, 48 h

Structures are written as SMILES.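 Five concentrations, 48 hours, 96-well plates. GI50: concentration for 50% inhibition of growth. The concentration for full growth arrest is given as TGI.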

For `C=C(C[N+](C)(C)C)N/N=C/c1oc(-c2ccc(OC)c(OC)c2)c(-c2ccc(OC)c(OC)c2)c1[N+](=O)[O-]`, the TGI in the assay on DU-145 prostate was above 100 µM; in the assay with HCC-2998 colon, 35.5 µM; in the assay on M14 melanoma it was 48.2 µM; in the assay with NCI-H226 lung, 66.3 µM; in the assay with OVCAR-8 ovarian it was 31.4 µM; in the assay with SNB-19 CNS, above 100 µM. Moreover, the figures for the TGI in the assay on SW-620 colon, in the assay with TK-10 renal and in the assay with UO-31 renal were 34.5 µM, 50.6 µM and 33.7 µM, respectively.
As to `Cc1cc(C(=O)Nc2cc(Nc3ncccc3-c3ncnc4nc[nH]c34)ccc2F)cc(C(C)(C)C#N)c1`, the GI50 in the assay on DU-145 prostate is 6.2 µM; in the assay on HCC-2998 colon, 0.415 µM; in the assay with M14 melanoma it was 0.0388 µM; in the assay on NCI-H226 lung, 0.527 µM; with OVCAR-8 ovarian, 3.02 µM; in the assay with SNB-19 CNS, 4.31 µM. The GI50 in the assay on SW-620 colon was 0.649 µM; with TK-10 renal, 4.07 µM; with UO-31 renal, 0.239 µM. Further, the TGI with DU-145 prostate is above 100 µM; in the assay on HCC-2998 colon, above 78.9 µM; in the assay on M14 melanoma, 1.12 µM; with NCI-H226 lung, above 100 µM; with OVCAR-8 ovarian, above 100 µM; in the assay with SNB-19 CNS it was above 100 µM. Besides, the TGI in the assay with SW-620 colon, in the assay on TK-10 renal and with UO-31 renal was above 100 µM throughout.
For the molecule `COc1ccc(C2NC(=S)NC3=C2COc2ccc(F)cc23)cc1OC` (configuration not stated), the GI50 in the assay with DU-145 prostate is 33.2 µM; in the assay on M14 melanoma, 33.9 µM; in the assay on NCI-H226 lung it was 16.3 µM; in the assay on OVCAR-8 ovarian, 19.4 µM; with SNB-19 CNS, 46.7 µM; in the assay on SW-620 colon it was 24.5 µM. The GI50 in the assay on TK-10 renal was 31.2 µM; in the assay with UO-31 renal, 39.2 µM. Besides, the TGI in the assay with DU-145 prostate was above 100 µM; in the assay on M14 melanoma it was above 100 µM; in the assay with NCI-H226 lung, 70.4 µM; with OVCAR-8 ovarian, 60.9 µM; in the assay with SNB-19 CNS, above 100 µM; with SW-620 colon it was above 100 µM. The TGI in the assay with TK-10 renal and in the assay with UO-31 renal was above 100 µM in each case.
For `Cc1ccc(-c2cc(C(Cl)Cl)on2)cc1`, the GI50 was 91.4 µM in the assay with DU-145 prostate; 74.1 µM with M14 melanoma; above 100 µM in the assay on MALME-3M melanoma; 48.2 µM in the assay with NCI-H226 lung; above 100 µM in the assay with OVCAR-8 ovarian; above 100 µM in the assay with SNB-19 CNS. In addition, the GI50 in the assay on SW-620 colon is 67.5 µM; in the assay with TK-10 renal it was 54.9 µM; in the assay on UO-31 renal, 49.5 µM. Moreover, the TGI in the assay on DU-145 prostate, in the assay on M14 melanoma, in the assay with MALME-3M melanoma, with NCI-H226 lung, in the assay with OVCAR-8 ovarian and in the assay on SNB-19 CNS was above 100 µM throughout. In addition, the TGI in the assay on SW-620 colon, in the assay on TK-10 renal and in the assay on UO-31 renal was above 100 µM throughout.
In the case of `C/C(=N\O)[C@H]1CC[C@@]2(C)[C@@H]3CC[C@H]4C(C)(C)/C(=N/O)CC[C@@]45CC35CC[C@]12C` (some centres not stated), the GI50 with DU-145 prostate was 2.85 µM; in the assay on M14 melanoma it was 3.2 µM; in the assay with NCI-H226 lung, 5.03 µM; in the assay with OVCAR-8 ovarian, 3.64 µM; with SNB-19 CNS, 8.21 µM; with SW-620 colon, 8.68 µM. Moreover, in the assay with TK-10 renal, the GI50 was 8.17 µM. Also, the TGI is 6.2 µM with DU-145 prostate; 8.11 µM with M14 melanoma; above 16.7 µM in the assay with NCI-H226 lung; 9.39 µM in the assay with OVCAR-8 ovarian; above 16.7 µM with SNB-19 CNS; above 16.7 µM in the assay with SW-620 colon. The molecule also yielded a TGI in the assay on TK-10 renal above 16.7 µM.
Take `O=c1c2ccccc2c(=O)c2c1sc1c(=O)c3ccc(O)cc3c(=O)c12`: the GI50 was 0.174 µM in the assay with DU-145 prostate; 0.0976 µM with M14 melanoma; 0.152 µM in the assay on MALME-3M melanoma; 1.78 µM in the assay on OVCAR-8 ovarian; 0.342 µM with SNB-19 CNS; 0.436 µM in the assay with SW-620 colon. For the same molecule, the results for the GI50 in the assay with TK-10 renal and in the assay with UO-31 renal were 2.24 µM and 0.644 µM, respectively. Further, the TGI was found to be 0.312 µM in the assay with DU-145 prostate; 0.219 µM with M14 melanoma; 0.318 µM in the assay with MALME-3M melanoma; 8.31 µM in the assay with OVCAR-8 ovarian; 1.24 µM with SNB-19 CNS; 1.56 µM in the assay with SW-620 colon. For the same molecule, the TGI turned out to be 3.97 µM in the assay with TK-10 renal and 2.82 µM with UO-31 renal.
In the case of `CCCCCCCCCCCCCCCCCCNC(=O)[C@H]1CSC(c2ccc(F)c(OC)c2)N1` (some centres not stated), the GI50 is 1.79 µM with DU-145 prostate; 1.05 µM with HCC-2998 colon; 0.713 µM in the assay on M14 melanoma; 0.951 µM in the assay with MALME-3M melanoma; 0.773 µM in the assay with NCI-H226 lung; 0.976 µM with OVCAR-8 ovarian. Also, the GI50 with SNB-19 CNS is 0.996 µM; in the assay on SW-620 colon it was 0.5 µM; with UO-31 renal, 5.57 µM. For the same molecule, the TGI with DU-145 prostate is above 50 µM; in the assay with HCC-2998 colon it was 1.94 µM; in the assay with M14 melanoma, 1.47 µM; in the assay with MALME-3M melanoma, 1.82 µM; with NCI-H226 lung, 1.58 µM; with OVCAR-8 ovarian, 2.7 µM. In addition, the TGI in the assay on SNB-19 CNS was 1.96 µM; in the assay on SW-620 colon, 1.54 µM; in the assay with UO-31 renal, above 50 µM.
As for `CC(C)(C)OC(=O)n1c(Cl)c(C(=O)N=C=S)c2ccccc21`, the GI50 was 36 µM in the assay with DU-145 prostate; 38.9 µM with HCC-2998 colon; above 100 µM with M14 melanoma; above 100 µM in the assay on NCI-H226 lung; 23.3 µM in the assay on OVCAR-8 ovarian; 44.4 µM in the assay with SNB-19 CNS. Further, the figures for the GI50 with SW-620 colon, with TK-10 renal and in the assay with UO-31 renal were 35.4 µM, 27.3 µM and 18.5 µM, respectively. In addition, the TGI is above 100 µM in the assay with DU-145 prostate; above 100 µM in the assay on HCC-2998 colon; above 100 µM with M14 melanoma; above 100 µM in the assay on NCI-H226 lung; 66.1 µM in the assay with OVCAR-8 ovarian; above 100 µM in the assay with SNB-19 CNS. For the same molecule, the TGI in the assay with SW-620 colon was above 100 µM; in the assay with TK-10 renal it was above 100 µM; with UO-31 renal it was 35.8 µM.
